Test results taken from patent US20020137929A1, “1 - (3-heterocyclylphenyl) isothiourea, -isourea, -guanidine and -amidine herbicidal agents” (Intellectual Property Department, BASF Aktiengesellschaft, priority 1998, published 2002).

Tests used:
[1] = test system: CYPSE (Flatsedge); experiment: Preemergence weed control under flooded paddy conditions; format: in vivo, Cyperus serotinus; settings: rated 3-4 weeks after treatment
In short: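 Silt loam, seeds in top 0.5 cm; flood held 1.5-3 cm; test cpd as acetone/water 50/50 into flood water, ~0.0313-0.500 kg/ha a.i.; greenhouse 3-4 wk; visual 0-9 score vs control.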

[2] = test system: ECHORC (Watergrass (Calif.)); experiment: as above; format: in vivo, Echinochloa oryzoides; settings: rated 3-4 weeks after treatment
In short: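 Ratings on a 0-9 visual scale cover stand, vigor, malformation, size, chlorosis and overall appearance relative to a control, taken three to four weeks post-treatment. Application was into flood water over freshly sown silt loam at roughly 0.0313 to 0.500 kg/ha.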

[3] = test system: CHEAL (Lambsquarters, Common); experiment: Preemergence herbicidal evaluation; format: in vivo, Chenopodium album; settings: rated 4-5 weeks after treatment; for CHEAL rating: preemergence, 0-9 scale
In short: (§1)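 Visual 0-9 rating vs control (stand, vigor, malformation, size, chlorosis, overall appearance), scored 4-5 wk after spraying. Seeded soil cups were treated preemergence with compound in aqueous acetone, ~0.0156-0.500 kg/ha equivalent.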

[4] = test system: ECHCG (Barnyardgrass); experiment: Postemergence herbicidal evaluation; format: in vivo, Echinochloa crus-galli; settings: for ECHCG herbicidal rating: postemergence
In short: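 Visual 0–9 rating versus control (stand, vigor, malformation, size, chlorosis, overall appearance), taken four to five weeks post-spray. Two-week-old seedlings received roughly 0.0156–0.500 kg/ha active in acetone/water (50/50) with 0.5% TWEEN 20 via nozzle at 40 psi.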

[5] = test system: ORYSAT (Rice, Tebonnet); experiment: Preemergence herbicidal evaluation; format: in vivo, Oryza sativa, (L.) Tebonnet; settings: rated 4-5 weeks after treatment; for ORYSAT rating: preemergence, 0-9 scale
In short: as §1

[6] = test system: MOOVA (Monochoria); experiment: Postemergence weed control under flooded paddy conditions; format: in vivo, Monochoria vaginalis; settings: postemergence weeds
In short: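 Herbicidal effect is judged by eye on a 0–9 scale versus control, 3–4 weeks after dosing. Dosing is into flood water kept 1.5–3 cm over the soil, at about 0.0313–0.500 kg/ha in aqueous/acetone 50/50 v/v, on 3–5 cm weeds and 1.5–2.5-leaf rice seedlings.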

[7] = Rate 0.0313 kg/ha, rated 3 to 4 weeks after treatment
[8] = Rate 0.0625 kg/ha, rated 3 to 4 weeks after treatment
[9] = Rate 0.1250 kg/ha, rated 3 to 4 weeks after treatment
[10] = Rate 0.2500 kg/ha, rated 3 to 4 weeks after treatment

Compound: CCOC(=O)CN1C(=O)C(CC(=O)NOC)SC1=Nc1cc(-n2c(=O)cc(C(F)(F)F)n(C)c2=O)c(F)cc1Cl (stereo not drawn) [Compound 83, Ethyl 2-{{2-chloro-5-[3,6-dihydro-3-methyl-2,6-dioxo-4-(trifluoromethyl)-1(2H)-pyrimidinyl]-4-fluorophenyl}imino}-5-[(methoxycarbamoyl)methyl]-4-oxo-3-thiazolidineacetate]
- CYPSE herbicidal effect rating ([1]; 0.0313 kg/ha): 0.0
- CYPSE herbicidal effect rating ([1]; 0.1250 kg/ha): 3.0
- CYPSE herbicidal effect rating ([1]; 0.2500 kg/ha): 5.0
- ECHORC herbicidal effect rating ([2]; 0.0313 kg/ha): 5.0
- ECHORC herbicidal effect rating ([2]; 0.0625 kg/ha): 6.0
- ECHORC herbicidal effect rating ([2]; 0.1250 kg/ha): 7.0
- ECHORC herbicidal effect rating ([2]; 0.2500 kg/ha): 7.0
- CHEAL rating ([3]; 0.0156 kg/ha): 9.0
- CHEAL rating ([3]; 0.0313 kg/ha): 9.0
- CHEAL rating ([3]; 0.0625 kg/ha): 9.0
- CHEAL rating ([3]; 0.1250 kg/ha): 9.0
- CHEAL rating ([3]; 0.2500 kg/ha): 9.0
- CHEAL rating ([3]; 0.5000 kg/ha): 9.0
- ECHCG herbicidal rating ([4]; rate 0.0156 kg/ha): 0.0
- ECHCG herbicidal rating ([4]; rate 0.0313 kg/ha): 2.0
- ECHCG herbicidal rating ([4]; rate 0.0625 kg/ha): 4.0
- ECHCG herbicidal rating ([4]; rate 0.1250 kg/ha): 9.0
- ORYSAT rating ([5]; 0.0156 kg/ha): 0.0
- ORYSAT rating ([5]; 0.0313 kg/ha): 0.0
- ORYSAT rating ([5]; 0.0625 kg/ha): 0.0
- ORYSAT rating ([5]; 0.1250 kg/ha): 0.0
- ORYSAT rating ([5]; 0.2500 kg/ha): 0.0
- ORYSAT rating ([5]; 0.5000 kg/ha): 5.0
- Herbicidal rating MOOVA [6, 7]: 9.0
- Herbicidal rating MOOVA [6, 8]: 9.0
- Herbicidal rating MOOVA [6, 9]: 9.0
- Herbicidal rating MOOVA [6, 10]: 9.0

Compound: C#CCOC(=O)CC1SC(=Nc2cc(-n3c(=O)cc(C(F)(F)F)n(C)c3=O)c(F)cc2Cl)N(C)C1=O (stereo not drawn) [Compound 90, 2-Propynyl 2-{{2-chloro-5-[3,6-dihydro-3-methyl-2,6-dioxo-4-(trifluoromethyl)-1(2H)-pyrimidinyl]-4-fluorophenyl}imino}-3-methyl-4-oxo-5-thiazolidineacetate]
- CYPSE herbicidal effect rating ([1]; 0.0313 kg/ha): 0.0
- CYPSE herbicidal effect rating ([1]; 0.0625 kg/ha): 0.0
- CYPSE herbicidal effect rating ([1]; 0.1250 kg/ha): 0.0
- CYPSE herbicidal effect rating ([1]; 0.2500 kg/ha): 3.0
- ECHORC herbicidal effect rating ([2]; 0.0313 kg/ha): 0.0
- ECHORC herbicidal effect rating ([2]; 0.0625 kg/ha): 0.0
- ECHORC herbicidal effect rating ([2]; 0.1250 kg/ha): 0.0
- ECHORC herbicidal effect rating ([2]; 0.2500 kg/ha): 3.0
- CHEAL rating ([3]; 0.0313 kg/ha): 7.0
- CHEAL rating ([3]; 0.0625 kg/ha): 9.0
- CHEAL rating ([3]; 0.1250 kg/ha): 9.0
- CHEAL rating ([3]; 0.2500 kg/ha): 9.0
- ECHCG herbicidal rating ([4]; rate 0.0158 kg/ha): 3.0
- ECHCG herbicidal rating ([4]; rate 0.0315 kg/ha): 5.0
- ECHCG herbicidal rating ([4]; rate 0.0630 kg/ha): 9.0
- ORYSAT rating ([5]; 0.0313 kg/ha): 0.0
- ORYSAT rating ([5]; 0.0625 kg/ha): 0.0
- ORYSAT rating ([5]; 0.1250 kg/ha): 2.0
- ORYSAT rating ([5]; 0.2500 kg/ha): 9.0
- Herbicidal rating MOOVA [6, 7]: 9.0
- Herbicidal rating MOOVA [6, 8]: 9.0
- Herbicidal rating MOOVA [6, 9]: 9.0
- Herbicidal rating MOOVA [6, 10]: 9.0

Compound: CCOC(=O)CN1C(=O)C(CC(=O)OC)S/C1=N/c1cc(-n2c(=O)cc(C(F)(F)F)n(C)c2=O)c(F)cc1Cl (stereo not drawn) [Compound 54, 2-{{2-Chloro-5-[3,6-dihydro-3-methyl-2,6-dioxo-4-(trifluoromethyl)-1(2H)-pyrimidinyl]-4-fluorophenyl}imino}-4-oxo-3,5-thiazolidinediacetic acid, 3-ethyl methyl ester]
- Herbicidal rating CYPSE ([1]; 0.0313 kg/ha): 0.0
- Herbicidal rating CYPSE ([1]; 0.0625 kg/ha): 0.0
- Herbicidal rating CYPSE ([1]; 0.1250 kg/ha): 0.0
- Herbicidal rating CYPSE ([1]; 0.2500 kg/ha): 4.0
- Herbicidal rating ECHORC ([2]; 0.0313 kg/ha): 5.0
- Herbicidal rating ECHORC ([2]; 0.0625 kg/ha): 5.0
- Herbicidal rating ECHORC ([2]; 0.1250 kg/ha): 7.0
- Herbicidal rating ECHORC ([2]; 0.2500 kg/ha): 9.0
- Preemergence herbicidal rating CHEAL ([3]; rate 0.0156 kg/ha): 4.5
- Preemergence herbicidal rating CHEAL ([3]; rate 0.0313 kg/ha): 9.0
- Preemergence herbicidal rating CHEAL ([3]; rate 0.0625 kg/ha): 9.0
- Preemergence herbicidal rating CHEAL ([3]; rate 0.1250 kg/ha): 9.0
- Preemergence herbicidal rating CHEAL ([3]; rate 0.2500 kg/ha): 9.0
- Preemergence herbicidal rating CHEAL ([3]; rate 0.5000 kg/ha): 9.0
- Postemergence herbicidal rating ECHCG ([4]; Rate 0.0158 kg/ha): 9.0
- Postemergence herbicidal rating ECHCG ([4]; Rate 0.0315 kg/ha): 9.0
- Postemergence herbicidal rating ECHCG ([4]; Rate 0.0630 kg/ha): 9.0
- Preemergence herbicidal rating ORYSAT ([5]; rate 0.0156 kg/ha): 0.0
- Preemergence herbicidal rating ORYSAT ([5]; rate 0.0313 kg/ha): 0.0
- Preemergence herbicidal rating ORYSAT ([5]; rate 0.0625 kg/ha): 1.0
- Preemergence herbicidal rating ORYSAT ([5]; rate 0.1250 kg/ha): 2.0
- Preemergence herbicidal rating ORYSAT ([5]; rate 0.2500 kg/ha): 4.5
- Preemergence herbicidal rating ORYSAT ([5]; rate 0.5000 kg/ha): 6.0
- Herbicidal rating MOOVA ([6]; rate 0.0313 kg/ha, 3-4 weeks after treatment): 0.0
- Herbicidal rating MOOVA ([6]; rate 0.0625 kg/ha, 3-4 weeks after treatment): 0.0
- Herbicidal rating MOOVA ([6]; rate 0.1250 kg/ha, 3-4 weeks after treatment): 6.0
- Herbicidal rating MOOVA ([6]; rate 0.2500 kg/ha, 3-4 weeks after treatment): 6.0

Compound: C=CCN1C(=O)C(CC(=O)OC)SC1=Nc1cc(-n2c(=O)cc(C(F)(F)F)n(C)c2=O)c(F)cc1Cl (stereo not drawn) [Compound 64, Methyl 3-allyl-2-{{2-chloro-5-[3,6-dihydro-3-methyl-2,6-dioxo-4-(trifluoromethyl)-1(2H)-pyrimidinyl]-4-fluorophenyl}imino}-4-oxo-5-thiazolidineacetate]
- CYPSE herbicidal effect rating ([1]; 0.0313 kg/ha): 0.0
- CYPSE herbicidal effect rating ([1]; 0.0625 kg/ha): 0.0
- CYPSE herbicidal effect rating ([1]; 0.1250 kg/ha): 0.0
- CYPSE herbicidal effect rating ([1]; 0.2500 kg/ha): 0.0
- ECHORC herbicidal effect rating ([2]; 0.0313 kg/ha): 5.0
- ECHORC herbicidal effect rating ([2]; 0.0625 kg/ha): 6.0
- ECHORC herbicidal effect rating ([2]; 0.1250 kg/ha): 6.0
- ECHORC herbicidal effect rating ([2]; 0.2500 kg/ha): 9.0
- Preemergence herbicidal rating CHEAL ([3]; rate 0.0156 kg/ha): 9.0
- Preemergence herbicidal rating CHEAL ([3]; rate 0.0313 kg/ha): 9.0
- Preemergence herbicidal rating CHEAL ([3]; rate 0.0625 kg/ha): 9.0
- Preemergence herbicidal rating CHEAL ([3]; rate 0.1250 kg/ha): 9.0
- Preemergence herbicidal rating CHEAL ([3]; rate 0.2500 kg/ha): 9.0
- Postemergence herbicidal rating ECHCG ([4]; Rate 0.0158 kg/ha): 3.0
- Postemergence herbicidal rating ECHCG ([4]; Rate 0.0315 kg/ha): 5.0
- Postemergence herbicidal rating ECHCG ([4]; Rate 0.0630 kg/ha): 7.0
- Preemergence herbicidal rating ORYSAT ([5]; rate 0.0156 kg/ha): 0.0
- Preemergence herbicidal rating ORYSAT ([5]; rate 0.0313 kg/ha): 0.0
- Preemergence herbicidal rating ORYSAT ([5]; rate 0.0625 kg/ha): 1.0
- Preemergence herbicidal rating ORYSAT ([5]; rate 0.1250 kg/ha): 1.0
- Preemergence herbicidal rating ORYSAT ([5]; rate 0.2500 kg/ha): 5.0
- Herbicidal rating MOOVA [6, 7]: 7.0
- Herbicidal rating MOOVA [6, 8]: 9.0
- Herbicidal rating MOOVA [6, 9]: 9.0
- Herbicidal rating MOOVA [6, 10]: 9.0
